Experimental data as given in patent US20100298141A1, “SUBSTITUTED PYRIDINE N-OXIDE HERBICIDES” (E. I. DU PONT DE NEMOURS AND COMPANY, priority 2007, published 2010).

What was measured:
broadleaf signalgrass = test: Test F preemergence test; assay type: in vivo, Brachiaria platyphylla; settings: scale 0 to 100
Outline: (§1)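 Visual ratings relative to controls, taken after 14 to 21 days in a greenhouse. Test chemicals, formulated in a surfactant-containing non-phytotoxic solvent mixture, were applied preemergence to sown seeds or postemergence to sugarcane plants.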

Russian thistle = test: Test C pre-/postemergence test; assay type: in vivo, Salsola kali; settings: for Plant response rating, Russian Thistle: 31 g ai/ha, scale 0 to 100 (0 no effect, 100 complete control)
Outline: (§2)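 Seeds were planted and treated preemergence with test chemical in a non-phytotoxic solvent mixture containing surfactant. Postemergence applications of the same formulation went onto plants 2 to 18 cm tall (1- to 4-leaf stage). A dash marks no test result.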

southern sandbur = test: Test F preemergence test; assay type: in vivo, Cenchrus echinatus; settings: scale 0 to 100
Outline: as §1

goosegrass = test: Test F preemergence test; assay type: in vivo, Eleusine indica; settings: scale 0 to 100
Outline: as §1

woolly cupgrass = test: Test C pre-/postemergence test; assay type: in vivo, Eriochloa villosa; settings: for Plant response rating, Cupgrass, Woolly: 31 g ai/ha, scale 0 to 100 (0 no effect, 100 complete control)
Outline: as §2

common ragweed = test: Test F preemergence test; assay type: in vivo, Ambrosia elation; settings: scale 0 to 100
Outline: as §1

quackgrass = test: Test F preemergence test; assay type: in vivo, Elytrigia repens; settings: scale 0 to 100
Outline: as §1

purple nutsedge = test: Test F preemergence test; assay type: in vivo, Cyperus rotundus; settings: scale 0 to 100
Outline: as §1

corn = test: Test C pre-/postemergence test; assay type: in vivo, Zea mays; settings: for Plant response rating, Corn: 31 g ai/ha, scale 0 to 100 (0 no effect, 100 complete control)
Outline: as §2

Italian ryegrass = test: Test F preemergence test; assay type: in vivo, Lolium multiflorum; settings: scale 0 to 100
Outline: as §1

Surinam grass = test: Test F preemergence test; assay type: in vivo, Brachiaria decumbens; settings: scale 0 to 100
Outline: as §1

kochia = test: Test F preemergence test; assay type: in vivo, Kochia scoparia; settings: scale 0 to 100
Outline: as §1

mustard = test: Test F preemergence test; assay type: in vivo, Brassica nigra; settings: scale 0 to 100
Outline: as §1

large crabgrass = test: Test F preemergence test; assay type: in vivo, Digitaria sanguinalis; settings: scale 0 to 100
Outline: as §1

blackgrass = test: Test C pre-/postemergence test; assay type: in vivo, Alopecurus myosuroides; settings: for Plant response rating, Blackgrass: 31 g ai/ha, scale 0 to 100 (0 no effect, 100 complete control)
Outline: as §2

bermudagrass = test: Test F preemergence test; assay type: in vivo, Cynodon dactylon; settings: scale 0 to 100
Outline: as §1

barnyardgrass = test: Test F preemergence test; assay type: in vivo, Echinochloa crus-galli
Outline: as §1

[1] = 62 g ai/ha, Preemergence, scale 0 to 100
[2] = preemergence, 125 g ai/ha, scale 0 (no effect) to 100 (complete control)
[3] = 125 g ai/ha, preemergence, scale 0 to 100
[4] = Preemergence, 31 g ai/ha, scale 0 to 100
[5] = 125 g ai/ha, preemergence, scale 0 (no effect) to 100 (complete control)
[6] = preemergence, 250 g ai/ha, scale 0 (no effect) to 100 (complete control)

## Cc1cc[n+]([O-])c(S(=O)(=O)Cc2c(C(F)(F)F)nn(C)c2Cl)c1 [Compound 19]
Broadleaf signalgrass; 62 g ai/ha, Preemergence
  Signalgrass plant response rating: 65
Broadleaf signalgrass; 125 g ai/ha, preemergence
  Signalgrass plant response rating: 95
Broadleaf signalgrass; Preemergence, 31 g ai/ha
  Plant response rating, Signalgrass: 60
Russian thistle; [1]
  Russian Thistle plant response rating: 100
Russian thistle; Preemergence
  Plant response rating, Russian Thistle: 100
Southern sandbur; 62 g ai/ha, Preemergence
  Sandbur plant response rating: 90
Southern sandbur; 125 g ai/ha, preemergence
  Sandbur plant response rating: 100
Southern sandbur; Preemergence, 31 g ai/ha
  Plant response rating, Sandbur: 60
goosegrass; 62 g ai/ha, Preemergence
  Goosegrass plant response rating: 90
goosegrass; 125 g ai/ha, preemergence
  Goosegrass plant response rating: 100
goosegrass; Preemergence, 16 g ai/ha
  Plant response rating, Goosegrass: 0
goosegrass; Preemergence, 31 g ai/ha
  Plant response rating, Goosegrass: 75
Woolly cupgrass; [1]
  Cupgrass, Woolly plant response rating: 100
Woolly cupgrass; Preemergence
  Plant response rating, Cupgrass, Woolly: 0
Woolly cupgrass; Preemergence, 250 g ai/ha
  Plant response rating (0 to 100), Cupgrass, Woolly: 100
Common ragweed; 62 g ai/ha, Preemergence
  Ragweed plant response rating: 50
Common ragweed; 125 g ai/ha, preemergence
  Ragweed plant response rating: 80
Common ragweed; Preemergence, 16 g ai/ha
  Plant response rating, Ragweed: 0
Common ragweed; Preemergence, 31 g ai/ha
  Plant response rating, Ragweed: 25
quackgrass; 62 g ai/ha, Preemergence
  Quackgrass plant response rating: 40
quackgrass; 125 g ai/ha, preemergence
  Quackgrass plant response rating: 60
quackgrass; Preemergence, 16 g ai/ha
  Plant response rating, Quackgrass: 0
quackgrass; Preemergence, 31 g ai/ha
  Plant response rating, Quackgrass: 0
Purple nutsedge; 62 g ai/ha, Preemergence
  Purple Nutsedge plant response rating: 60
Purple nutsedge; 125 g ai/ha, preemergence
  Purple Nutsedge plant response rating: 70
Purple nutsedge; Preemergence, 16 g ai/ha
  Plant response rating, Purple Nutsedge: 0
Purple nutsedge; Preemergence, 31 g ai/ha
  Plant response rating, Purple Nutsedge: 0
corn; [1]
  Corn plant response rating: 40
corn; Preemergence
  Plant response rating, Corn: 0
corn; Preemergence, 250 g ai/ha
  Plant response rating (0 to 100), Corn: 70
corn; [2]
  Corn plant response rating: 40
Italian ryegrass; 62 g ai/ha, Preemergence
  Ryegrass, Italian plant response rating: 50
Italian ryegrass; 125 g ai/ha, preemergence
  Ryegrass, Italian plant response rating: 65
Italian ryegrass; Preemergence, 16 g ai/ha
  Plant response rating, Ryegrass, Italian: 0
Italian ryegrass; Preemergence, 31 g ai/ha
  Plant response rating, Ryegrass, Italian: 10
Surinam grass; 62 g ai/ha, Preemergence
  Surinam Grass plant response rating: 75
Surinam grass; 125 g ai/ha, preemergence
  Surinam Grass plant response rating: 90
Surinam grass; Preemergence, 31 g ai/ha
  Plant response rating, Surinam Grass: 30
kochia; 62 g ai/ha, Preemergence
  Kochia plant response rating: 0
kochia; 125 g ai/ha, preemergence
  Kochia plant response rating: 100
kochia; Preemergence, 16 g ai/ha
  Plant response rating, Kochia: 0
kochia; Preemergence, 31 g ai/ha
  Plant response rating, Kochia: 0
mustard; 62 g ai/ha, Preemergence
  Black Mustard plant response rating: 100
mustard; 125 g ai/ha, preemergence
  Black Mustard plant response rating: 100
mustard; Preemergence, 16 g ai/ha
  Plant response rating, Black Mustard: 0
mustard; Preemergence, 31 g ai/ha
  Plant response rating, Black Mustard: 20
Large crabgrass; 62 g ai/ha, Preemergence
  Crabgrass, Large plant response rating: 80
Large crabgrass; 125 g ai/ha, preemergence
  Crabgrass, Large plant response rating: 95
Large crabgrass; Preemergence, 16 g ai/ha
  Plant response rating, Crabgrass, Large: 35
Large crabgrass; Preemergence, 31 g ai/ha
  Plant response rating, Crabgrass, Large: 50
blackgrass; [1]
  Blackgrass plant response rating: 0
blackgrass; Preemergence
  Plant response rating, Blackgrass: 0
blackgrass; Preemergence, 250 g ai/ha
  Plant response rating (0 to 100), Blackgrass: 100
blackgrass; [2]
  Blackgrass plant response rating: 0
bermudagrass; 62 g ai/ha, Preemergence
  Bermudagrass plant response rating: 60
bermudagrass; 125 g ai/ha, preemergence
  Bermudagrass plant response rating: 95
bermudagrass; Preemergence, 16 g ai/ha
  Plant response rating, Bermudagrass: 0
bermudagrass; Preemergence, 31 g ai/ha
  Plant response rating, Bermudagrass: 40
barnyardgrass; [1]
  Barnyardgrass plant response rating: 90
barnyardgrass; [3]
  Barnyardgrass plant response rating: 98
barnyardgrass; Preemergence, 16 g ai/ha, scale 0 to 100
  Plant response rating, Barnyardgrass: 70
barnyardgrass; [4]
  Plant response rating, Barnyardgrass: 80

## CC(Oc1c(C[S+]([O-])c2cccc[n+]2[O-])c(C(F)(F)F)nn1C)C(F)(F)F (centres unmarked) [Compound 77]
Broadleaf signalgrass; 16 g ai/ha, preemergence
  Plant response rating, Signalgrass: 0
Broadleaf signalgrass; 125 g ai/ha, preemergence
  Signalgrass plant response rating: 90
Broadleaf signalgrass; Preemergence, 62 g ai/ha
  Plant response rating, Signalgrass: 75
Broadleaf signalgrass; Preemergence, 31 g ai/ha
  Plant response rating, Signalgrass: 25
Russian thistle; [1]
  Russian Thistle plant response rating: 100
Russian thistle; [5]
  Russian Thistle plant response rating: 100
Russian thistle; Preemergence
  Plant response rating, Russian Thistle: 100
Russian thistle; [6]
  Russian Thistle plant response rating: 100
Southern sandbur; 16 g ai/ha, preemergence
  Plant response rating, Sandbur: 0
Southern sandbur; 125 g ai/ha, preemergence
  Sandbur plant response rating: 100
Southern sandbur; Preemergence, 62 g ai/ha
  Plant response rating, Sandbur: 95
Southern sandbur; Preemergence, 31 g ai/ha
  Plant response rating, Sandbur: 90
goosegrass; 16 g ai/ha, preemergence
  Plant response rating, Goosegrass: 20
goosegrass; 62 g ai/ha, Preemergence
  Goosegrass plant response rating: 100
goosegrass; 125 g ai/ha, preemergence
  Goosegrass plant response rating: 100
goosegrass; Preemergence, 31 g ai/ha
  Plant response rating, Goosegrass: 85
Woolly cupgrass; [1]
  Cupgrass, Woolly plant response rating: 98
Woolly cupgrass; [5]
  Cupgrass, Woolly plant response rating: 100
Woolly cupgrass; Preemergence
  Plant response rating, Cupgrass, Woolly: 80
Woolly cupgrass; [6]
  Cupgrass, Woolly plant response rating: 100
Common ragweed; 16 g ai/ha, preemergence
  Plant response rating, Ragweed: 0
Common ragweed; 125 g ai/ha, preemergence
  Ragweed plant response rating: 98
Common ragweed; Preemergence, 62 g ai/ha
  Plant response rating, Ragweed: 65
quackgrass; 16 g ai/ha, preemergence
  Plant response rating, Quackgrass: 0
quackgrass; 62 g ai/ha, Preemergence
  Quackgrass plant response rating: 40
quackgrass; 125 g ai/ha, preemergence
  Quackgrass plant response rating: 80
quackgrass; Preemergence, 31 g ai/ha
  Plant response rating, Quackgrass: 0
Purple nutsedge; 16 g ai/ha, preemergence
  Plant response rating, Purple Nutsedge: 0
Purple nutsedge; 125 g ai/ha, preemergence
  Purple Nutsedge plant response rating: 75
Purple nutsedge; Preemergence, 31 g ai/ha
  Plant response rating, Purple Nutsedge: 60
corn; [1]
  Corn plant response rating: 95
corn; [5]
  Corn plant response rating: 100
corn; Preemergence
  Plant response rating, Corn: 40
corn; [6]
  Corn plant response rating: 100
Italian ryegrass; 16 g ai/ha, preemergence
  Plant response rating, Ryegrass, Italian: 0
Italian ryegrass; 125 g ai/ha, preemergence
  Ryegrass, Italian plant response rating: 100
Italian ryegrass; Preemergence, 62 g ai/ha
  Plant response rating, Ryegrass, Italian: 90
Italian ryegrass; Preemergence, 31 g ai/ha
  Plant response rating, Ryegrass, Italian: 40
Surinam grass; 16 g ai/ha, preemergence
  Plant response rating, Surinam Grass: 0
Surinam grass; 125 g ai/ha, preemergence
  Surinam Grass plant response rating: 98
Surinam grass; Preemergence, 62 g ai/ha
  Plant response rating, Surinam Grass: 95
Surinam grass; Preemergence, 31 g ai/ha
  Plant response rating, Surinam Grass: 70
kochia; 16 g ai/ha, preemergence
  Plant response rating, Kochia: 0
kochia; 62 g ai/ha, Preemergence
  Kochia plant response rating: 75
kochia; 125 g ai/ha, preemergence
  Kochia plant response rating: 100
kochia; Preemergence, 31 g ai/ha
  Plant response rating, Kochia: 0
mustard; 16 g ai/ha, preemergence
  Plant response rating, Black Mustard: 0
mustard; 62 g ai/ha, Preemergence
  Black Mustard plant response rating: 65
mustard; 125 g ai/ha, preemergence
  Black Mustard plant response rating: 100
mustard; Preemergence, 31 g ai/ha
  Plant response rating, Black Mustard: 20
Large crabgrass; 16 g ai/ha, preemergence
  Plant response rating, Crabgrass, Large: 0
Large crabgrass; 62 g ai/ha, Preemergence
  Crabgrass, Large plant response rating: 95
Large crabgrass; 125 g ai/ha, preemergence
  Crabgrass, Large plant response rating: 100
Large crabgrass; Preemergence, 31 g ai/ha
  Plant response rating, Crabgrass, Large: 85
blackgrass; [1]
  Blackgrass plant response rating: 100
blackgrass; [5]
  Blackgrass plant response rating: 100
blackgrass; Preemergence
  Plant response rating, Blackgrass: 100
blackgrass; [6]
  Blackgrass plant response rating: 100
bermudagrass; 16 g ai/ha, preemergence
  Plant response rating, Bermudagrass: 0
bermudagrass; 62 g ai/ha, Preemergence
  Bermudagrass plant response rating: 80
bermudagrass; 125 g ai/ha, preemergence
  Bermudagrass plant response rating: 95
bermudagrass; Preemergence, 31 g ai/ha
  Plant response rating, Bermudagrass: 30
barnyardgrass; 16 g ai/ha, preemergence, scale 0 to 100 (0 no effect, 100 complete control)
  Plant response rating, Barnyardgrass: 65
barnyardgrass; [1]
  Barnyardgrass plant response rating: 100
barnyardgrass; [3]
  Barnyardgrass plant response rating: 100
barnyardgrass; [4]
  Plant response rating, Barnyardgrass: 90
